Experiments:
[1] = molecular target: Cyclin-dependent kinase 4/Cyclin D1; assay: Inhibition of CDK4/Cyclin D1 (unknown origin)
[2] = molecular target: Neuropilin-1 (Homo sapiens) (UniProt O14786); assay: Inhibition of [125I]-VEGF-A165 binding to NRP1 (unknown origin) transfected in HUVECs incubated for 2 hrs by plate reader analysis
Neuropilin-1 (Homo sapiens), sequence (O14786 whole entry, looked up): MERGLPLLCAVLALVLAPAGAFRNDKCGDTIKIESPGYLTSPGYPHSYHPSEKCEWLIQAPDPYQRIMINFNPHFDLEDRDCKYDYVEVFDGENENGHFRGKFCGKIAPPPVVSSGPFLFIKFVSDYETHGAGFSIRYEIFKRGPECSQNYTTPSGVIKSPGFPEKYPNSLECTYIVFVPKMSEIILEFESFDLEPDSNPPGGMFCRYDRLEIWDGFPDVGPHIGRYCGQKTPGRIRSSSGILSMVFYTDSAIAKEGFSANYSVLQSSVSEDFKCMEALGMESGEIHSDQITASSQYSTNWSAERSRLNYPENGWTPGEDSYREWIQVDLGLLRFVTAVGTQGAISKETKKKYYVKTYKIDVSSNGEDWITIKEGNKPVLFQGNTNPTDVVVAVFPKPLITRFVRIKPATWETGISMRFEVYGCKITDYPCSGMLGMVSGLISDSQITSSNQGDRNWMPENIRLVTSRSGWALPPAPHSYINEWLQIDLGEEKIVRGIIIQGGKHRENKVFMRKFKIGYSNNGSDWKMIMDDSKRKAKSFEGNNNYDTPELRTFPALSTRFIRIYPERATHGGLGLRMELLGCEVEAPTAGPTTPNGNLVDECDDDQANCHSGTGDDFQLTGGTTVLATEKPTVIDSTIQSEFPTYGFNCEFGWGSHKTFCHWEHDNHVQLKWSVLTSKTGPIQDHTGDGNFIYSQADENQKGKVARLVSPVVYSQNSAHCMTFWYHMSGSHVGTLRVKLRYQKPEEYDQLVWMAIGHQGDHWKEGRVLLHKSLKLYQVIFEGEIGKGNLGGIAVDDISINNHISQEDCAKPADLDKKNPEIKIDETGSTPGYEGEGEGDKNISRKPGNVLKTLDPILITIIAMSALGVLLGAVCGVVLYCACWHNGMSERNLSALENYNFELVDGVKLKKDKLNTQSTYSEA

Structure (SMILES) | IC50 [1] | IC50 [2]
COc1ccc(/C=C\c2cc(OC)c(OC)c(OC)c2)cc1NC(=O)CCC(=O)N[C@@H](CCCNC(=N)N)C(=O)O | > 10 µM | 0.85 µM
COc1ccc(/C=C\c2cc(OC)c(OC)c(OC)c2)cc1NC(=O)/C=C/C(=O)N[C@@H](CCCNC(=N)N)C(=O)O | – | 3.91 µM
COc1ccc(/C=C\c2cc(OC)c(OC)c(OC)c2)cc1NC(=O)CCCC(=O)N[C@@H](CCCNC(=N)N)C(=O)O | – | 6.33 µM
COc1ccc(/C=C\c2cc(OC)c(OC)c(OC)c2)cc1NC(=O)CCCCC(=O)N[C@@H](CCCNC(=N)N)C(=O)O | – | 8.94 µM
COc1ccc(/C=C\c2cc(OC)c(OC)c(OC)c2)cc1NC(=O)CCCCCCC(=O)N[C@@H](CCCNC(=N)N)C(=O)O | – | 15 µM
NC(N)=NCCC[C@H](NC(=O)c1sccc1NS(=O)(=O)c1cccc2nsnc12)C(=O)O [(S)-2-(3-(benzo[c][1,2,5]thiadiazole-4-sulfonamido)thiophene-2-carboxamido)-5-guanidinopentanoic acid] | – | 2.91 µM

Reference: BindingDB's records for doi:10.1021/acs.jmedchem.3c01572 (China Pharmaceutical University, 2023)
